Key:
[1] = system: Aβ1-42; assay: Aβ 1-42 of the cell supernatant quantified by ELISA (Innotest β-Amyloid1-42); format: cell-based, human
Procedure: (§1) The human neuroblastoma cell line SH-SYSY were cultured in Dulbecco's modified Eagle medium supplemented with 10% fetal calf serum, 2 mM L-glutamine, 1 mM non-essential amino-acids, penicillin/streptomycin (Invitrogen SARL, Cergy Pontoise, France) and 200 μg/ml G418 (to select for APP expression) in a 5% CO2 humidified incubator at 37° C. APP751 cDNA with the Swedish mutation (APP^Sw) was subcloned into stably eukaryotic expression vector pcDNA3 (Invitrogen), allowing for a G418 (Invitrogen) selection of stable clones. This APP cDNA was stably transfected into SH-SY5Y cells using the ethyleneimine polymer ExGen 500 (Euromedex) according to the manufacturer's instructions.
(§2) Cells were plated into 6-well plates 24 h before drug exposure. […] After treatment, the medium was collected for the dosage of Aβ1-42. Cells were washed with phosphate-buffered saline and scraped with a policeman rubber in 70 μl of Laemmli sample buffer with protease inhibitors (Complete Mini Roche Molecular Biochemicals, Meylan, France), sonicated and heat-treated for 5 min at 100° C. Protein concentration was established using the PlusOne™ 2-D Quant Kit (Amersham Biosciences, Orsay, France) and samples were kept at −80° C. until used.
The collected medium was spun at 200 g to eliminate the cell debris and Aβ1-42 concentration was determined using the Innotest® β-Amyloid1-42 (Innogenetics, Ghent, Belgium) according to the manufacturer's instructions.
(§3) SKNSH SY5Y transfected cells were grown in the presence of drugs at different concentrations, for example at 1 μM or 5 μM, then cells were harvested and analyzed for their APP-CTF content, using the western-blot approach, while Aβ 1-42 of the cell supernatant Was quantified by ELISA, as described in material and methods. For each compound, normal levels have the arbitrary value of 1. For example, if one APP-CTF is increased 10 times, the value is reported as 10. For Aβ peptide, if decreased of 60%, the value is reported as 0.4 (40% remaining).

[2] = system: APP-CTFs; assay: APP-CTFs content of APPSw-transfected SH-SY5Y cells by western blot; format: cell-based, human; parameters: key to β (APP-CTF β stub level, normal level = 1) / α (APP-CTF α stub level, normal level = 1) / γ (APP-CTF γ stub level, normal level = 1) / CTFs (APP-CTFs level, normal level = 1): fold of normal level, normal = 1
Procedure: as §1, §2
The APPCter-C17 antibody is raised against the last 17 amino acids of the human APP sequence (Sergeant, N., David, J. P., Champain, D., Ghestem, A., Wattez, A., and Delacourte, A. (2002) J Neurochem 81, 663-672). This polyclonal antibody detects all APP-CTFs fragments. The tubulin signal was used as a loading control and to normalize the APP-CTFs content. Anti-mouse or anti-rabbit secondary antibodies coupled with horseradish peroxidase were purchased at SIGMA Immunochemicals (Saint Quentin Fallavier, France).
The same quantity of total proteins (20 μg/lane) was loaded on a 16.5% Tris-tricine polyacrylamide gel. Tris-tricine SDS-polyacrylamide gel electrophoresis (PAGE) was performed following the procedure of Schagger and Von Jagow (1987) (Schagger, H., and von Jagow, G. (1987) Anal Biochem 166, 368-379) with a protean II Xi Cell (Bio-Rad, Marnes la coquette, France). Proteins were transferred to nitrocellulose membrane at 2.5 mA/cm^2 per gel using the SemiDry Novablot Transfer system (Amersham Biosciences, Orsay, France), according to the manufacturer's instructions. Proteins were reversibly stained with Ponceau Red to check the quality of the transfer. Membranes were blocked in 25 mM Tris-HCl pH 8.0, 150 mM NaCl, 0.1% Tween-20 (v/v) and 5% (w/v) of skimmed milk for 30 min. Membranes were incubated overnight at 4° C. with appropriate dilutions of the primary antibodies, and incubated for 1 h at room temperature with secondary antibody.
Western blot films were digitized using an UMax scanner calibrated for optical densities (Amersham Biosciences). The Image-MASTER 1D ELITE Software (Amersham Biosciences) was used to quantify the signal, and data were collected using Excel Software (Microsoft, LesUlis, France).
as §3

[3] = Solubility in the BBB screening; format: physicochemical
Excerpt: (§4) The transport of drug was good for example 16 and moderate for example 23. Indeed, the permeability coefficients obtained for example 16 (2.26×10^−3 cm/min) and example 23 (1.81×10^−3 cm/min) indicate that these compounds cross the BBB and are good candidates as CNS drugs.

[4] = system: endothelial cell monolayer; assay: Toxicity on the endothelial cell monolayer of the BBB model; format: cell-based; conditions: concentration of 10 μM
Excerpt: (§5) The ability of some compounds to cross the Blood-Brain Barrier (BBB) has been evaluated, using an in vitro model (Cecchelli, R., et al., In vitro model for evaluating drug transport across the blood-brain barriers. Adv Drug Deliv Rev, 1999. 36(2-3): p. 165-178). The described model consists in brain capillary endothelial cells co-cultured with glial cells, thereby closely mimicking the in vivo conditions (Lundquist, S, and M. Renftel, The use of in vitro cell culture models for mechanistic studies and as permeability screens for the blood-brain barrier in the pharmaceutical industry-background and current status in the drug discovery process. Vascul Pharmacol 2002. 38(6): p. 355-64) and developed by CELLIAL Technologies SA.
as §4

[5] = system: brain capillary endothelial cells co-cultured with glial cells; assay: In vitro Blood-Brain Barrier model, drug transport; format: in vitro ADME; conditions: for Permeability coefficient: in vitro BBB model
Excerpt: as §5, §4

[6] = greater concentration (5 μM) at 24 hours
[7] = low concentration (1 μM) at 6 hours
[8] = 24 h, 1 μM as printed (fourth column)

Molecule: 1,4-bis{3-[N-n-heptyl)amino]propyl}piperazine [Example 10]
- Decrease of Aβ peptide levels compared to the control (FIG. 1) [1, 6]: efficiency is confirmed
- Decrease of Aβ peptide levels compared to the control (FIG. 1) [1, 7]: efficient to decrease Aβ peptide levels

Molecule: Clc1ccc(CNCCCN2CCN(CCCNCc3ccc(Cl)cc3)CC2)cc1 [Example 4]
- Efficiency for α and γ-APP-CTFs stubs [2]: particularly high efficiency
- CTFs (APP-CTFs level, normal level = 1) ([2]; 6 h, 1 μM): 6
- α (APP-CTF α stub level, normal level = 1) ([2]; 6 h, 1 μM): 14
- β (APP-CTF β stub level, normal level = 1) ([2]; 6 h, 1 μM): 0.8
- γ (APP-CTF γ stub level, normal level = 1) ([2]; 6 h, 1 μM): 9.6
- CTFs (APP-CTFs level, normal level = 1) ([2]; 6 h, 5 μM): 5
- α (APP-CTF α stub level, normal level = 1) ([2]; 6 h, 5 μM): 11
- β (APP-CTF β stub level, normal level = 1) ([2]; 6 h, 5 μM): 1.2
- γ (APP-CTF γ stub level, normal level = 1) ([2]; 6 h, 5 μM): 5.7
- CTFs (APP-CTFs level, normal level = 1) ([2]; 24 h, 1 μM (third column)): 3.5
- α (APP-CTF α stub level, normal level = 1) ([2]; 24 h, 1 μM (third column)): 3.5
- β (APP-CTF β stub level, normal level = 1) ([2]; 24 h, 1 μM (third column)): 0.8
- γ (APP-CTF γ stub level, normal level = 1) ([2]; 24 h, 1 μM (third column)): 5.1
- CTFs (APP-CTFs level, normal level = 1) [2, 8]: 65
- α (APP-CTF α stub level, normal level = 1) [2, 8]: 7
- β (APP-CTF β stub level, normal level = 1) [2, 8]: 5
- γ (APP-CTF γ stub level, normal level = 1) [2, 8]: 14.4
- Efficiency for Aβ peptide (FIG. 1) [1]: particularly high efficiency
- Aβ (Aβ peptide level, normal level = 1; fraction remaining) ([1]; 6 h, 1 μM): 0.2
- Aβ (Aβ peptide level, normal level = 1; fraction remaining) ([1]; 6 h, 5 μM): 0
- Aβ (Aβ peptide level, normal level = 1; fraction remaining) ([1]; 24 h, 1 μM (third column)): 1
- Aβ (Aβ peptide level, normal level = 1; fraction remaining) [1, 8]: 0.1
- Decrease of Aβ peptide levels compared to the control (FIG. 1) [1, 6]: efficiency is confirmed
- Decrease of Aβ peptide levels compared to the control (FIG. 1) [1, 7]: efficient to decrease Aβ peptide levels

Molecule: N^4-(3-{4-[3(diisobutylamino)propyl]piperizano}propyl)-benzimidazol-2-amine [Example 16]
- Solubility [3]: soluble
- Toxicity on the endothelial cell monolayer [4]: not toxic
- Transport of drug across the in vitro BBB [5]: good
- Diffusion across the filter membrane coated with collagen and without cells [5]: able to diffuse across the filter membrane
- Permeability coefficient [5]: 37.7 ×10⁻⁶ cm/s

Molecule: N^4-[3-(4-{3-[diisobutylamino]propyl}piperizano)propyl]-4-benzyloxyamine [Example 23]
- Solubility [3]: soluble
- Toxicity on the endothelial cell monolayer [4]: not toxic
- Transport of drug across the in vitro BBB [5]: moderate
- Diffusion across the filter membrane coated with collagen and without cells [5]: able to diffuse across the filter membrane
- Permeability coefficient [5]: 30.2 ×10⁻⁶ cm/s

Reference: patent US9044478B2, “Use of 1,4-bis (3-aminoalkyl) piperazine derivatives in the treatment of neurodegenerative diseases” (INSTITUT NATIONAL DE LA SANTE ET DE LA RECHERCHE MEDICALE, priority 2004, dated 2015)
